In BindingDB's records for doi:10.1016/j.ejmech.2017.05.035 (Universidade Estadual De Feira De Santana, 2017):

Assay: Antagonist activity at Adenosine receptor subtype 2B in human RBC assessed as change in erythrocyte morphology incubated for 3 hrs with occasional gentle stirring for every 30 min measured for every 12 hrs by microscopic analysis

| SMILES | Ki [µM] | EC50 [µM] |
| --- | --- | --- |
| Cc1ccc(N2CCN(C(=O)[C@H](C)Oc3ccc(-c4cc5c([nH]4)c(=O)n(C)c(=O)n5C)cc3)CC2)cc1 | 0.0018 | – |
| Cc1cc(NC(=O)CNc2ccc3c(c2)OC(F)(F)O3)on1 | – | 0.035 |
| CC(C)c1noc(OCC(=O)NCc2ccc3c(c2)OCO3)n1 | – | 0.035 |
| C[C@H](Oc1ccc(-c2cc3c([nH]2)c(=O)n(C)c(=O)n3C)cc1)C(=O)Nc1ccc(Br)cc1 | 0.0013 | – |
| CCCc1cc(O)nc(SC(C)C(=O)Nc2cc(C)no2)n1 (stereo not drawn) | – | 0.023 |
| O=C(CN1CCOC(Cn2cncn2)C1)Nc1cccnc1 (stereo not drawn) | – | 0.017 |
| CCCn1c(=O)n(C)c(=O)c2[nH]c(-c3ccc(O[C@@H](C)C(=O)N4CCN(c5nc6ccc(Cl)cc6s5)CC4)cc3)cc21 | 0.001 | – |
| CC(OC(=O)c1nccnc1N)C(=O)NCc1ccc2c(c1)OCO2 (stereo not drawn) | – | 0.047 |
